Laboratory results from paper PMC12652730, “The Chemoreceptive Molecular Mechanism Underlying CSP-Mediated Recognition of Seed Elaiosome from Stemona tuberosa by Hornets” (Genes, 2025).
Like-named read-outs stand apart in the source and are kept apart here.

Assays:
[1] = target: VvelCSP1 (Vespa velutina auraria, UniProt A0A384ZVP9); experiment: Fluorescence competitive binding assay (1-NPN probe) with VvelCSP1; conditions: for Ki: VvelCSP1
Experimental: (§1) Fluorescence competitive binding assays were employed to characterize the interactions between VvelCSPs and 13 volatiles shared between the elaiosomes of S. tuberosa and the cuticular hydrocarbons of honeybees. These tests were performed in 1 cm path length quartz cuvettes with an excitation wavelength of 337 nm and emission wavelength scanning from 400–450 nm. The volatiles and the fluorescent probe 1-NPN (1-N-phenylnaphthylamine), listed in Supplementary Table S2, were dissolved in methanol to prepare 100 mM stock solutions, which were then diluted to 1 mM working solutions [25]. To remove any potential endogenous ligands, the purified proteins were delipidated by three washes with an equal volume of dichloromethane (1:1 v/v). Each wash involved a 10-min incubation, and the process was followed by evaporation of the residual solvent under a gentle stream of nitrogen. Purified CSPs were resuspended in 20 mM Tris-HCl buffer (pH 7.5) to a final concentration of 2 μM. Binding parameters for CSP-NPN were determined by titration: 2 mL of CSP solution (2 μM) was titrated with 1-NPN (final concentrations: 2−24 μM). Maximum fluorescence intensity was recorded, and the dissociation constant was calculated. […] After incubation in the dark for 2 min, fluorescence quenching was measured. Half-maximal inhibitory concentration (IC50) values for volatiles were calculated from the competition curves, and their binding constants (Ki) were subsequently derived. The presented data, including IC50 and Ki values, originate from a single experiment under uniform conditions to ensure comparability (Supplementary Table S3).

[2] = target: VvelCSP4; experiment: Fluorescence competitive binding assay (1-NPN probe) with VvelCSP4; set-up: species or system Vespa velutina auraria
Experimental: as §1

[3] = VvelCSP4 2 μM, 1-NPN 1 μM, Tris-HCl pH 7.5, single experiment, read-out: IC50 (ligand concentration displacing 50% of the fluorescence intensity of the CSPs/NPN complex)
[4] = VvelCSP4, derived from IC50, read-out: Ki (dissociation constant)
[5] = VvelCSP4, read-out: IC50 (μM), no binding symbol
[6] = VvelCSP4, read-out: Ki (μM), no binding symbol

VvelCSP1, sequence (A0A384ZVP9 entry or part of it): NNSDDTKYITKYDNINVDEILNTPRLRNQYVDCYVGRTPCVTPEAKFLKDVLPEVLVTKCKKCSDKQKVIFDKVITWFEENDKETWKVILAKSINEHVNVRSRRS

Row | Compound | Raw fluorescence intensity ([1]; VvelCSP1, chemical 0.5 μM) | Raw fluorescence intensity ([1]; VvelCSP1, chemical 1 μM) | Raw fluorescence intensity ([1]; VvelCSP1, chemical 2 μM) | Raw fluorescence intensity ([1]; VvelCSP1, chemical 4 μM) | Raw fluorescence intensity ([1]; VvelCSP1, chemical 6 μM) | Raw fluorescence intensity ([1]; VvelCSP1, chemical 8 μM) | Raw fluorescence intensity ([1]; VvelCSP1, chemical 12 μM) | Raw fluorescence intensity ([1]; VvelCSP1, chemical 16 μM) | IC50 [2, 3] [µM] | Raw fluorescence intensity ([2]; VvelCSP4, chemical 0.5 μM) | Raw fluorescence intensity ([2]; VvelCSP4, chemical 1 μM) | Raw fluorescence intensity ([2]; VvelCSP4, chemical 2 μM) | Raw fluorescence intensity ([2]; VvelCSP4, chemical 4 μM) | Raw fluorescence intensity ([2]; VvelCSP4, chemical 6 μM) | Raw fluorescence intensity ([2]; VvelCSP4, chemical 8 μM) | Raw fluorescence intensity ([2]; VvelCSP4, chemical 12 μM) | Raw fluorescence intensity ([2]; VvelCSP4, chemical 16 μM) | Ki [2, 4] [µM] | IC50 [2, 5] [µM] | Ki [2, 6] [µM] | further results
1 | CCCCCCCCCCCCCCCCCCCCCCCCCCC [Heptacosane] | 222.51 | 205.55 | 159.00 | 136.99 | 130.11 | 123.81 | 117.37 | 115.92 | 6.2 | 218.17 | 194.71 | 172.10 | 154.91 | 140.68 | 130.60 | 128.65 | 125.52 | 4.6 |  |  | 
2 | CCCCCCCCCCCCCCCCCCCCCCCCCC [Hexacosane] | 189.29 | 171.76 | 135.79 | 114.55 | 103.35 | 99.94 | 93.92 | 89.96 |  | 213.35 | 194.71 | 177.42 | 169.19 | 147.61 | 141.30 | 136.25 | 133.13 |  | > 24 | > 18 | 
3 | CCCCCCCCCCCCCCCCCCCCCCCCCCCCC [Nonacosane] | 215.85 | 197.03 | 181.17 | 168.33 | 152.52 | 138.03 | 127.11 | 120.08 | 20.4 | 212.97 | 196.97 | 179.08 | 164.16 | 151.46 | 136.04 | 129.53 | 125.16 | 15.1 |  |  | 
4 | CCCCCCCCCCCCCCCCCCCCCCCCCCCC [Octacosane] | 200.77 | 192.40 | 162.06 | 146.64 | 135.22 | 131.33 | 127.20 | 124.62 |  | 227.35 | 213.99 | 194.19 | 182.58 | 174.55 | 162.14 | 156.02 | 154.11 |  | > 24 | > 18 | 
5 | CCCCCCCCCCCCCCCCCCCCCCCCC [Pentacosane] | 242.52 | 219.99 | 165.83 | 143.30 | 135.17 | 129.88 | 124.70 | 122.60 | 4.65 | 211.45 | 182.28 | 160.44 | 139.39 | 119.91 | 111.74 | 105.45 | 103.82 | 3.49 |  |  | 
6 | CCCCCCCCCCCCCCCCCCCCCCCC [Tetracosane] | 225.09 | 200.88 | 176.79 | 157.66 | 144.05 | 131.64 | 122.98 | 117.42 | 18.9 | 216.50 | 198.86 | 178.28 | 160.59 | 153.54 | 132.96 | 126.27 | 122.27 | 14.2 |  |  | 
7 | CCCCCCCCCCCCCCCCCCCCCCCCCCCCCC [Triacontane] | 211.63 | 196.09 | 180.51 | 166.41 | 152.93 | 143.85 | 139.39 | 137.14 |  | 216.07 | 200.62 | 183.85 | 171.56 | 162.42 | 148.29 | 139.28 | 135.24 |  | > 24 | > 18 | 

Further lines, with some results ahead:

Row | Raw fluorescence intensity ([1]; VvelCSP1, chemical 0.5 μM) | Raw fluorescence intensity ([1]; VvelCSP1, chemical 1 μM) | Raw fluorescence intensity ([1]; VvelCSP1, chemical 2 μM) | Raw fluorescence intensity ([1]; VvelCSP1, chemical 4 μM) | Raw fluorescence intensity ([1]; VvelCSP1, chemical 6 μM) | Raw fluorescence intensity ([1]; VvelCSP1, chemical 8 μM) | Raw fluorescence intensity ([1]; VvelCSP1, chemical 12 μM) | Raw fluorescence intensity ([1]; VvelCSP1, chemical 16 μM) | IC50 [2, 3] [µM] | Raw fluorescence intensity ([2]; VvelCSP4, chemical 0.5 μM) | Raw fluorescence intensity ([2]; VvelCSP4, chemical 1 μM) | Raw fluorescence intensity ([2]; VvelCSP4, chemical 2 μM) | Raw fluorescence intensity ([2]; VvelCSP4, chemical 4 μM) | Raw fluorescence intensity ([2]; VvelCSP4, chemical 6 μM) | Raw fluorescence intensity ([2]; VvelCSP4, chemical 8 μM) | Raw fluorescence intensity ([2]; VvelCSP4, chemical 12 μM) | Raw fluorescence intensity ([2]; VvelCSP4, chemical 16 μM) | Ki [2, 4] [µM] | IC50 [2, 5] [µM] | Ki [2, 6] [µM] | Compound | further results
8 | 246.77 | 231.89 | 197.76 | 171.56 | 161.14 | 158.53 | 154.82 | 153.17 | 3.68 | 205.93 | 179.89 | 159.86 | 127.80 | 108.85 | 102.51 | 95.75 | 91.32 | 2.73 |  |  | CCCCCCCCCCCCCCCCCCCCCC [Docosane] | 
9 | 246.85 | 234.09 | 206.27 | 199.36 | 183.72 | 175.07 | 172.10 | 170.22 |  | 192.14 | 182.38 | 164.23 | 154.96 | 139.00 | 133.35 | 128.24 | 125.62 |  | > 24 | > 18 | CCCCCCCCCCCCCCCCCCCC [Eicosane] | 
10 | 190.87 | 168.28 | 152.31 | 138.38 | 134.83 | 130.66 | 127.58 | 125.86 | 19.8 | 252.45 | 226.44 | 209.89 | 178.34 | 161.57 | 149.85 | 143.60 | 140.19 | 14.7 |  |  | CCCCCCCCCCCCCCCCCCCCC [Heneicosane] | 
11 | 223.11 | 209.38 | 178.27 | 171.35 | 158.50 | 148.00 | 140.37 | 133.91 | 10.4 | 238.31 | 207.32 | 185.38 | 167.28 | 153.91 | 144.81 | 135.70 | 129.34 | 7.89 |  |  | CCCCCCCCCCCCCCCCCCC [Nanadecane] | IC50 ([1]; VvelCSP1 2 μM, 1-NPN 1 μM, Tris-HCl pH 7.5, single experiment, read-out: IC50 (ligand concentration displacing 50% of the fluorescence intensity of the CSPs/NPN complex)): 18.2 µM; Ki ([1]; derived from IC50, read-out: Ki (dissociation constant)): 14.5 µM; Ki ([1]; read-out: Binding affinity class (by Ki)): > 10 µM; Ki ([2]; VvelCSP4, read-out: Binding affinity class (by Ki)): 5 to 10 µM
